Data reported in paper PMC10696402 (The Journal of Biological Chemistry, 2023).
Several values for one entry are separate records, joined by “and”; a condition that tells them apart may be missing. Identical values can stand only once. Entries after “also recorded” stand apart in the source; their conditions may differ. Like-named read-outs stand apart in the source and are kept apart here.

What was measured:
[1] = test system: CYP2C9 Phe114 substituted with Ile and Leu; conditions: cited from earlier work
WT CYP2C9 [2] = molecular target: T1, WT CYP2C9 (Homo sapiens, UniProt P11712); assay: Diclofenac 4′-hydroxylation kinetics, recombinant WT CYP2C9; conditions: for CLint, diclofenac 4′-hydroxylation: Vmax/Km; for Km at 7 min: human, pH 7.4, Km, diclofenac 4′-hydroxylation
Method: (§1) Incubations were performed in phosphate buffer (100 μl; 0.1 M, pH 7.4) and contained WT or mutant CYP2C9 protein, 3 pmol/ml. […] After preincubation at 37 °C for 5 min, reactions were initiated by the addition of NADPH (1 mM final concentration) containing MgCl2 (4 mM). Following incubation at 37 °C for 30 min, reactions were terminated by the addition of 11.6 M HClO4 (1 μl). Samples were cooled on ice and then centrifuged at 5000g, 4 °C for 10 min. An aliquot (20 μl) of the supernatant fraction was injected into the HPLC column. […] The mobile phase comprised 25 mM phosphate buffer containing 0.02% triethylamine and 5% acetonitrile (phase A) and acetonitrile (phase B), delivered at a flow rate of 1 ml/min. […] Given the favorable sensitivities of these assays, rates of metabolite formation below the lower limits of quantification may be considered negligible.
(§2) The mobile phase comprised 10 mM ammonium formate (pH 3) in 5% acetonitrile (mobile phase A) and acetonitrile (mobile phase B) delivered at a flow rate of 1 ml/min.
Kinetic data are presented as the mean (± SD) of four separate experiments. Unless otherwise stated, metabolite formation followed sigmoidal kinetics, which was confirmed by comparison of goodness-of-fit parameters from fitting rate of metabolite formation versus substrate concentration data with the equations for empirical kinetic models (Michaelis–Menten, substrate inhibition, biphasic, and positive cooperativity) using the program GraphPad Prism version 7.01 (https://www.graphpad.com, GraphPad Software, Inc). […] CLint, which reflects reaction efficiency, was calculated as Vmax/Km.

CYP2C9 Lys206Ala mutant [3] = molecular target: T2, CYP2C9 Lys206Ala mutant (Homo sapiens, UniProt P11712, K206A); assay: Diclofenac 4′-hydroxylation kinetics, Lys206Ala mutant; conditions: for CLint, diclofenac 4′-hydroxylation: Vmax/Km; for Km at 7 min: human, pH 7.4, Km, diclofenac 4′-hydroxylation
Method: (§3) Mutations were confirmed by DNA sequencing using an Applied Biosystems 3130xl Genetic Analyzer with BigDye Terminator v3.1 Chemistry (Applied Biosystems).
(§4) WT and mutant CYP2C9 proteins and NADPH-CPR were coexpressed according to Boye et al. ([61]). Plasmids were transformed into E. coli DH5R competent cells and single isolated colonies were grown by shaking at 37 °C overnight in Luria-Bertani medium containing ampicillin (100 mg/L) and chloramphenicol (50 mg/L). Overnight cultures of each clone were diluted 1:100 in Terrific broth containing 0.2% Bacto Peptone (w/v), ampicillin (100 mg/L), and chloramphenicol (50 mg/L). Cells were grown at 37 °C in a rotary shaker until the absorbance at 600 nm reached 0.7, when δ-aminolevulinic acid and isopropyl-α-D-thiogalactopyroside were added to final concentrations of 0.5 mM and 1 mM, respectively. Cultures were then grown at 30 °C with shaking at 200 rpm for 24 h. Bacterial cells were harvested, and membrane fractions were prepared as described by Gillam et al. ([62]). The P450 content of bacterial membranes was quantified spectrophotometrically using established methods ([63], [64], [65]). CPR content was measured spectrophotometrically as the NADPH-cytochrome c reductase activity ([66]).
as §1, §2
(§5) Kinetic data are presented as the mean (± SD) of four separate experiments. […] CLint, which reflects reaction efficiency, was calculated as Vmax/Km.

WT CYP2C9 [4] = molecular target: T1, WT CYP2C9; assay: in vitro; conditions: pH 7.4, Km, flurbiprofen 4′-hydroxylation
Method: (§6) Incubations were performed in phosphate buffer (100 μl; 0.1 M, pH 7.4) and contained WT or mutant CYP2C9 protein, 3 pmol/ml. […] After preincubation at 37 °C for 5 min, reactions were initiated by the addition of NADPH (1 mM final concentration) containing MgCl2 (4 mM). […] Samples were cooled on ice and then centrifuged at 5000g, 4 °C for 10 min. An aliquot (20 μl) of the supernatant fraction was injected into the HPLC column. […] The mobile phase comprised 25 mM phosphate buffer containing 0.02% triethylamine and 5% acetonitrile (phase A) and acetonitrile (phase B), delivered at a flow rate of 1 ml/min. […] Given the favorable sensitivities of these assays, rates of metabolite formation below the lower limits of quantification may be considered negligible.
as §5

CYP2C9 Lys206Ala mutant [5] = molecular target: T2, CYP2C9 Lys206Ala mutant; conditions: for Vmax, flurbiprofen 4′-hydroxylation / CLint, flurbiprofen 4′-hydroxylation: Lys206Ala; for CLint, flurbiprofen 4′-hydroxylation: Vmax/Km
Method: as §3, §4, §1, §5

CYP2C9 = conditions: cited from earlier work
CYP2C9 homology model = conditions: homology model based on rabbit CYP2C5 crystal structure; cited from earlier work
CYP2C9 Lys206Ala mutant [6] = molecular target: T2, CYP2C9 Lys206Ala mutant; assay: in vitro; conditions: pH 7.4, Km, flurbiprofen 4′-hydroxylation
Method: as §3, §4, §1, §5

WT CYP2C9 [7] = molecular target: T1, WT CYP2C9; conditions: for Vmax, flurbiprofen 4′-hydroxylation / CLint, flurbiprofen 4′-hydroxylation: WT; for CLint, flurbiprofen 4′-hydroxylation: Vmax/Km
Method: as §6, §5

[8] = test system: CYP2C9 Phe114 substituted with Ile and Leu; conditions: Phe114Ile and Phe114Leu vs WT; cited from earlier work
recombinant CYP2C9 = conditions: cited from earlier work
WT CYP2C9 [9] = molecular target: T1, WT CYP2C9; conditions: dapsone 100 μM
Method: Incubations were performed in phosphate buffer (100 μl; 0.1 M, pH 7.4) and contained WT or mutant CYP2C9 protein, 3 pmol/ml. […] After preincubation at 37 °C for 5 min, reactions were initiated by the addition of NADPH (1 mM final concentration) containing MgCl2 (4 mM). Following incubation at 37 °C for 30 min, reactions were terminated by the addition of 11.6 M HClO4 (1 μl). Samples were cooled on ice and then centrifuged at 5000g, 4 °C for 10 min. An aliquot (20 μl) of the supernatant fraction was injected into the HPLC column. […] The mobile phase comprised 25 mM phosphate buffer containing 0.02% triethylamine and 5% acetonitrile (phase A) and acetonitrile (phase B), delivered at a flow rate of 1 ml/min.
The mobile phase comprised 10 mM ammonium formate (pH 3) in 5% acetonitrile (mobile phase A) and acetonitrile (mobile phase B), delivered at a flow rate of 1 ml/min. The initial mobile phase composition was 80% mobile phase A and 20% mobile phase B, which was delivered for 8 min. After this time, the proportion of mobile phase B was increased to 70% over 0.1 min, and then held for 2 min before returning to the initial conditions.
Kinetic data are presented as the mean (± SD) of four separate experiments. Unless otherwise stated, metabolite formation followed sigmoidal kinetics, which was confirmed by comparison of goodness-of-fit parameters from fitting rate of metabolite formation versus substrate concentration data with the equations for empirical kinetic models (Michaelis–Menten, substrate inhibition, biphasic, and positive cooperativity) using the program GraphPad Prism version 7.01 (https://www.graphpad.com, GraphPad Software, Inc).

[10] = healthy volunteers; cited from earlier work
CYP3A [11] = conditions: semisimultaneous administration of efavirenz; cited from earlier work
CYP3A4 = test system: CYP3A4; design: method as in PMID 19752211; conditions: coadministration of gefitinib, CYP3A4-humanized mice; cited from earlier work
CYP3A [12] = conditions: monkeys coadministered quinidine; cited from earlier work
[13] = Lys206Ala vs WT CYP2C9, − dapsone

In the case of `O=C(O)Cc1ccccc1Nc1c(Cl)cccc1Cl` [Diclofenac, diclofenac], the “reduction of CLint for diclofenac 4′-hydroxylation (abolished or reduced)” value [1] is given as no less than 89%, the “Vmax, diclofenac 4′-hydroxylation” value (WT CYP2C9 [2]; + dapsone 100 μM) is given as 3.19 ± 0.09 pmol/min/pmol P450 and the “CLint, diclofenac 4′-hydroxylation” value (WT CYP2C9 [2]; + dapsone 100 μM) is given as 1.99 ± 0.17 μL/min/pmol P450. The Km at 7 min (WT CYP2C9 [2]; + dapsone 100 μM) was 1.6 ± 0.15 µM, the Km at 7 min (WT CYP2C9 [2]; − dapsone) was 2.18 ± 0.16 µM and the “Vmax, diclofenac 4′-hydroxylation” value (WT CYP2C9 [2]; − dapsone) was 5.20 ± 0.13 pmol/min/pmol P450. The “CLint, diclofenac 4′-hydroxylation” value (WT CYP2C9 [2]; − dapsone) was 2.39 ± 0.16 μL/min/pmol P450, the “Vmax, diclofenac 4′-hydroxylation” value (CYP2C9 Lys206Ala mutant [3]; + dapsone 100 μM) was 4.41 ± 0.12 pmol/min/pmol P450 and the “CLint, diclofenac 4′-hydroxylation” value (CYP2C9 Lys206Ala mutant [3]; + dapsone 100 μM) was 1.81 ± 0.07 μL/min/pmol P450. The Km at 7 min (CYP2C9 Lys206Ala mutant [3]; + dapsone 100 μM) was 2.45 ± 0.13 µM, the Km at 7 min (CYP2C9 Lys206Ala mutant [3]; − dapsone) was 4.05 ± 0.35 µM and the “Vmax, diclofenac 4′-hydroxylation” value (CYP2C9 Lys206Ala mutant [3]; − dapsone) was 6.53 ± 0.19 pmol/min/pmol P450. The “CLint, diclofenac 4′-hydroxylation” value (CYP2C9 Lys206Ala mutant [3]; − dapsone) was 1.64 ± 0.10 μL/min/pmol P450.

With `C[C@H](C(=O)O)c1ccc(-c2ccccc2)c(F)c1` [Flurbiprofen, S-flurbiprofen] the Km at 30 min (WT CYP2C9 [4]; + dapsone 100 μM) was 5.6 ± 0.31 µM, the Km at 30 min (WT CYP2C9 [4]; − dapsone, mean ± SD, four experiments) was 12.4 ± 0.44 µM and the “Km for flurbiprofen 4′-hydroxylation, higher than WT” value (CYP2C9 Lys206Ala mutant [5]; [13]) was 30%. For the same compound, the “Vmax for flurbiprofen 4′-hydroxylation, lower than WT” value (CYP2C9 Lys206Ala mutant [5]; [13]) was 37%, the “intrinsic clearance (CLint) of flurbiprofen 4′-hydroxylation, lower than WT” value (CYP2C9 Lys206Ala mutant [5]; [13]) was “approximately 50%” and the “Vmax, flurbiprofen 4′-hydroxylation” value (CYP2C9 Lys206Ala mutant [5]; + dapsone 100 μM) was 4.27 ± 0.11 pmol/min/pmol P450. For the same compound, the “CLint, flurbiprofen 4′-hydroxylation” value (CYP2C9 Lys206Ala mutant [5]; + dapsone 100 μM) was 0.66 ± 0.03 μL/min/pmol P450, the “Vmax, flurbiprofen 4′-hydroxylation” value (CYP2C9 Lys206Ala mutant [5]; − dapsone) was 3.21 ± 0.14 pmol/min/pmol P450 and the “CLint, flurbiprofen 4′-hydroxylation” value (CYP2C9 Lys206Ala mutant [5]; − dapsone) was 0.20 ± 0.01 μL/min/pmol P450. The “shift of the 4′-proton of flurbiprofen nearer to the heme Fe in the presence of dapsone” value (CYP2C9; T1 relaxation rates by NMR) was 0.9 Å, the “increase in binding affinity of flurbiprofen in the presence of dapsone” value (CYP2C9) was “approximately 60%” and the “estimate of the shift in the SOM–heme Fe distance of flurbiprofen with dapsone” value (CYP2C9 homology model) was 0.5 Å. The Km at 30 min (CYP2C9 Lys206Ala mutant [6]; + dapsone 100 μM) was 6.6 ± 0.3 µM, the Km at 30 min (CYP2C9 Lys206Ala mutant [6]; − dapsone) was 16.2 ± 0.6 µM and the “Vmax, flurbiprofen 4′-hydroxylation” value (WT CYP2C9 [7]; + dapsone 100 μM) was 5.30 ± 0.09 pmol/min/pmol P450. The “CLint, flurbiprofen 4′-hydroxylation” value (WT CYP2C9 [7]; + dapsone 100 μM) was 0.946 ± 0.033 μL/min/pmol P450, the “CLint, flurbiprofen 4′-hydroxylation” value (WT CYP2C9 [7]; − dapsone) was 0.407 ± 0.01 μL/min/pmol P450 and the “Vmax, flurbiprofen 4′-hydroxylation” value (WT CYP2C9 [7]; − dapsone, mean ± SD) was 5.05 pmol/min/pmol P450 and 5.05 ± 0.08 pmol/min/pmol P450.

For `CC(=O)C[C@@H](c1ccccc1)c1c(O)c2ccccc2oc1=O` [S-warfarin], the “reduction of CLint for S-warfarin 7-hydroxylation (abolished or reduced)” value [8] is listed as no less than 89%.

For `Nc1ccc(S(=O)(=O)c2ccc(N)cc2)cc1` [dapsone], the “increase in Vmax of flurbiprofen 4′-hydroxylation by dapsone” value (recombinant CYP2C9; WT CYP2C9, earlier study) is listed as roughly 60%, the “dapsone concentration giving maximum activation” value (recombinant CYP2C9; flurbiprofen 4′-hydroxylation, naproxen O-demethylation, piroxicam 5′-hydroxylation, confirmed here with naproxen (data not shown)) is listed as 100 µM and the “decrease in the Km for naproxen demethylation by dapsone” value (WT CYP2C9 [9]) is listed as 70%. For the same compound, the “increase in Vmax of naproxen demethylation by dapsone” value (WT CYP2C9 [9]) was 4.8 fold, the “increase in catalytic efficiency (CLint) of naproxen O-demethylation by dapsone” value (WT CYP2C9 [9]) was 16.5 fold and the “increase in flurbiprofen exposure on coadministration of dapsone” value [10] was 10%. The “effect of dapsone on Vmax of flurbiprofen 4′-hydroxylation” value (WT CYP2C9 [7]; WT CYP2C9, dapsone 100 μM) was “unaffected; also recorded: without significantly affecting”, the “increase in catalytic efficiency (CLint) of flurbiprofen 4′-hydroxylation by dapsone” value (WT CYP2C9 [7]; WT CYP2C9, dapsone 100 μM) was 2.3 fold and the “reduction in the Km for flurbiprofen 4′-hydroxylation by dapsone” value (WT CYP2C9 [7]; WT CYP2C9, dapsone 100 μM) was roughly 60%.

For `O=C1Nc2ccc(Cl)cc2[C@@](C#CC2CC2)(C(F)(F)F)O1` [efavirenz], the “increase in apparent oral clearance of midazolam” value (CYP3A [11]) is listed as 70%.

For `COc1cc2ncnc(Nc3ccc(F)c(Cl)c3)c2cc1OCCCN1CCOCC1` [gefitinib], the “effect on triazolam exposure” value (CYP3A4) is given as “significantly reduce”.

In the case of `C=C[C@H]1C[N@@]2CC[C@H]1C[C@@H]2[C@@H](O)c1ccnc2ccc(OC)cc12` [quinidine], the “decrease in steady-state plasma concentrations of diclofenac” value (CYP3A [12]) is given as “approximately 50%”.
